Where two headings read alike, the source gives them in different places.
Tests used:
Assay type in all cases: cell-based, human
Target C [1] = assay: Splicing RT-qPCR panel, Target C canonical junction (CJ) mRNA; details: read-out: Target C IC50 (decrease in CJ mRNA levels)
In short: (§1)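 First, A673 cells adhered 24 h, while K562 cells were plated directly. Next, compounds were added as an 11-point 3-fold series from 10 uM for 24 h. Finally, lysates went to RT-qPCR, with 2^(−ΔΔCt) values converted to percentage response.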

Target C [2] = assay: HiBiT protein abundance assay, Target C; details: modified K562 cells
In short: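 Cells carrying the HiBiT knock-in were plated at 10000 cells/well, dosed with compound (10-point, 3-fold, 10 μM top final) and incubated 24 hours at 37 °C. Lytic reagent was then added and luminescence read. Percent response fed a 4PL fit for IC50.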

MYB [3] = assay: Splicing RT-qPCR assay, MYB mRNA canonical junction (CJ) and alternative junction (AJ); details: for AC50: increase in AJ mRNA
In short: as §1

MYB [4] = assay: HiBiT protein abundance assay, MYB; details: modified K562 cells
In short: (§2)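 Target abundance was measured as HiBiT luminescence after 24 h compound treatment of tagged K562 cells. Responses were normalized between unmodified K562 and DMSO-treated tagged cells, and IC50 taken at the 50% level of a 4PL curve.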

HTT [5] = assay: HiBiT protein abundance assay, HTT; details: modified K562 cells
In short: as §2

HTT [6] = assay: Splicing RT-qPCR assay, HTT mRNA canonical junction (CJ) and alternative junction (AJ); details: for AC50: increase in AJ mRNA
In short: as §1

SMN2 = assay: Splicing RT-qPCR panel, SMN2 canonical junction (CJ) mRNA; details: read-out: SMN2 IC50 (decrease in CJ mRNA levels)
In short: as §1

[7] = Homo sapiens, RT-qPCR panel, canonical junction mRNA, compound concentration having 50% response in CJ decrease
[8] = Homo sapiens, K562, 24 h, Table 13A
[9] = Homo sapiens, 24 h, decrease in CJ mRNA, A673 or K562 cells, 24 hours treatment, RT-qPCR, read-out: MYB CJ IC50
[10] = Homo sapiens, 24 h, A673 or K562 cells, 24 hours treatment, RT-qPCR
[11] = Homo sapiens, RT-qPCR panel, canonical junction mRNA, compound concentration having 50% response in CJ decrease, read-out: MYB IC50 (decrease in CJ mRNA levels)
[12] = Homo sapiens, RT-qPCR panel, canonical junction mRNA, compound concentration having 50% response in CJ decrease, read-out: HTT IC50 (decrease in CJ mRNA levels)
[13] = Homo sapiens, gene panel, CJ qPCR, protocol of Example 142
[14] = Homo sapiens, K562, 24 h, Table 13B
[15] = Homo sapiens, gene panel, CJ qPCR, protocol of Example 142, read-out: MYB IC50 (decrease in CJ mRNA levels)
[16] = Homo sapiens, gene panel, CJ qPCR, protocol of Example 142, read-out: HTT IC50 (decrease in CJ mRNA levels)
[17] = Homo sapiens, 24 h, decrease in CJ mRNA, A673 or K562 cells, 24 hours treatment, RT-qPCR, read-out: HTT CJ IC50
[18] = RT-qPCR panel, canonical junction mRNA, compound concentration having 50% response in CJ decrease

Row | SMILES | IC50 (Target C [1]; [7]) [nM] | IC50 (Target C [2]; [8]) [nM] | IC50 (MYB [3]; [11]) [nM] | IC50 (MYB [4]; [8]) [nM] | IC50 (HTT [5]; [8]) [nM] | IC50 (HTT [6]; [12]) [nM] | IC50 (SMN2; [7]) [nM] | IC50 (HTT [6]; [17]) [nM] | IC50 (MYB [3]; [9]) [nM] | AC50 (MYB [3]; [10]) [nM] | AC50 (HTT [6]; [10]) [nM] | further results
1 | CN(c1ccc(-c2ccc(-c3cn[nH]c3)c3cn[nH]c23)nn1)[C@@H]1C[C@H]2CC(F)(F)[C@@H](C1)N2 (stereo in doubt) [Compound 376, 6,6-difluoro-N-methyl-N-{6-[4-(1H-pyrazol-4-yl)-1H-indazol-7-yl]pyridazin-3-yl}-8-azabicyclo[3.2.1]octan-3-amine] | 100 to 1000 | 100 to 1000 | 100 to 1000 | 100 to 1000 | 100 to 1000 | < 100 | < 100 | – | 100 to 1000 | 100 to 1000 | 100 to 1000 | –
2 | COc1nc(-c2ccc(N3CCC(NC4CC4)C3)nn2)ccc1-c1cn[nH]c1 (stereo not drawn) [Compound 998] | – | – | – | – | – | – | – | – | – | – | – | IC50 (Target C [1]; [13]): > 10000 nM; IC50 (Target C [2]; [14]): 1000 to 10000 nM; IC50 (MYB [3]; [15]): > 10000 nM; IC50 (MYB [4]; [14]): > 10000 nM; IC50 (HTT [5]; [14]): 100 to 1000 nM; IC50 (HTT [6]; [16]): 100 to 1000 nM; IC50 (SMN2; [13]): 100 to 1000 nM
3 | CN(c1ccc(-c2ccc(-c3cnn(C)c(=O)c3)c3ncsc23)nn1)C1CC(C)(C)NC(C)(C)C1 [Compound 331, 2-methyl-5-(7-{6-[methyl(2,2,6,6-tetramethylpiperidin-4-yl)amino]pyridazin-3-yl}-1,3-benzothiazol-4-yl) pyridazin-3-one] | > 10000 | > 10000 | 1000 to 10000 | 1000 to 10000 | 100 to 1000 | 1000 to 10000 | 100 to 1000 | 1000 to 10000 | 1000 to 10000 | 1000 to 10000 | 1000 to 10000 | –
4 | c1nc2c(-c3cn[nH]c3)ccc(-c3ccc(N(C4CCNCC4)C4CC4)nn3)c2s1 [Compound 283] | 1000 to 10000 | 1000 to 10000 | > 10000 | 100 to 1000 | 1000 to 10000 | 1000 to 10000 | 1000 to 10000 | 1000 to 10000 | > 10000 | > 10000 | 1000 to 10000 | –
5 | COc1nc(-c2ccc(N(C)C3CC(C)(C)NC(C)(C)C3)nc2)ccc1-c1cnn(C)n1 [Compound 996] | – | – | – | – | – | – | – | – | – | – | – | IC50 (Target C [1]; [13]): 1000 to 10000 nM; IC50 (Target C [2]; [14]): 100 to 1000 nM; IC50 (MYB [3]; [15]): 1000 to 10000 nM; IC50 (MYB [4]; [14]): 1000 to 10000 nM; IC50 (HTT [5]; [14]): 100 to 1000 nM; IC50 (HTT [6]; [16]): 100 to 1000 nM; IC50 (SMN2; [13]): 100 to 1000 nM
6 | CN(c1ccc(-c2ccc(-n3cccn3)c3nc[nH]c23)nn1)[C@@H]1C[C@H]2CC[C@@H](C1)N2 [Compound 170] | > 10000 | > 10000 | 1000 to 10000 | 1000 to 10000 | 1000 to 10000 | 1000 to 10000 | 100 to 1000 | 1000 to 10000 | 1000 to 10000 | 1000 to 10000 | 1000 to 10000 | –
7 | CN1CCC12CCN(c1ccc(-c3ccc(-c4cn[nH]c4)c4ncsc34)nn1)C2 (stereo not drawn) [Compound 287] | > 10000 | 1000 to 10000 | > 10000 | 100 to 1000 | 1000 to 10000 | > 10000 | 100 to 1000 | > 10000 | > 10000 | > 10000 | > 10000 | –
8 | Cn1cc(-c2ccc(-c3ccc(O[C@@H]4C[C@H]5CC[C@@H](C4)N5)nn3)c3[nH]ncc23)nn1 [Compound 323, 7-{6-[(1R,3S,5S)-8-azabicyclo[3.2.1]octan-3-yloxy]pyridazin-3-yl}-4-(1-methyl-1,2,3-triazol-4-yl)-1H-indazole] | 1000 to 10000 | 1000 to 10000 | 100 to 1000 | 100 to 1000 | 100 to 1000 | 100 to 1000 | < 100 | 100 to 1000 | 100 to 1000 | 100 to 1000 | 100 to 1000 | –
9 | CN(c1ccc(-c2ccc(-c3cn[nH]c3)c3ncsc23)nn1)C1CCNCC1 [Compound 222] | 1000 to 10000 | 1000 to 10000 | 1000 to 10000 | 1000 to 10000 | 100 to 1000 | 1000 to 10000 | 100 to 1000 | 1000 to 10000 | 1000 to 10000 | 1000 to 10000 | 1000 to 10000 | –
10 | C[C@@H]1CN(c2ncc(-c3ccc(-c4cn[nH]c4)c4ncsc34)nn2)C[C@H](C)N1 [Compound 562] | > 10000 | 1000 to 10000 | > 10000 | 1000 to 10000 | 1000 to 10000 | > 10000 | 1000 to 10000 | – | – | – | – | –
11 | CC(C)(C)NC1CCN(c2ccc(-c3ccc(-c4cn[nH]c4)c4ncsc34)nn2)C1 (stereo not drawn) [Compound 345, N-tert-butyl-1-{6-[4-(1H-pyrazol-4-yl)-1,3-benzothiazol-7-yl]pyridazin-3-yl} pyrrolidin-3-amine] | – | – | – | – | – | – | – | – | – | – | – | IC50 (Target C [1]; [18]): 1000 to 10000 nM; IC50 (Target C [2]; Table 13A, 24 hours): 1000 to 10000 nM; IC50 (MYB [3]; RT-qPCR panel, canonical junction mRNA, compound concentration having 50% response in CJ decrease, read-out: MYB IC50 (decrease in CJ mRNA levels)): 1000 to 10000 nM; IC50 (MYB [3]; decrease in CJ mRNA, A673 or K562 cells, 24 hours treatment, RT-qPCR, read-out: MYB CJ IC50): 1000 to 10000 nM; IC50 (MYB [4]; Table 13A, 24 hours): 1000 to 10000 nM; IC50 (HTT [5]; Table 13A, 24 hours): 100 to 1000 nM; IC50 (HTT [6]; RT-qPCR panel, canonical junction mRNA, compound concentration having 50% response in CJ decrease, read-out: HTT IC50 (decrease in CJ mRNA levels)): 1000 to 10000 nM; IC50 (HTT [6]; decrease in CJ mRNA, A673 or K562 cells, 24 hours treatment, RT-qPCR, read-out: HTT CJ IC50): 1000 to 10000 nM; IC50 (SMN2; [18]): 100 to 1000 nM
12 | c1n[nH]cc1-c1ccc(-c2ccc(N3CC4(CCCNC4)C3)nn2)c2[nH]ncc12 [Compound 218] | > 10000 | > 10000 | > 10000 | > 10000 | > 10000 | > 10000 | > 10000 | > 10000 | > 10000 | > 10000 | > 10000 | –

Continued, in another order:

Row | IC50 (Target C [1]; [7]) [nM] | IC50 (Target C [2]; [8]) [nM] | IC50 (MYB [3]; [11]) [nM] | IC50 (MYB [4]; [8]) [nM] | IC50 (HTT [5]; [8]) [nM] | IC50 (HTT [6]; [12]) [nM] | IC50 (SMN2; [7]) [nM] | IC50 (HTT [6]; [17]) [nM] | SMILES | IC50 (MYB [3]; [9]) [nM] | AC50 (MYB [3]; [10]) [nM] | AC50 (HTT [6]; [10]) [nM] | further results
13 | 1000 to 10000 | 1000 to 10000 | 1000 to 10000 | 1000 to 10000 | 100 to 1000 | 1000 to 10000 | 100 to 1000 | 1000 to 10000 | CC1(C)CC(Oc2ccc(-c3ccc(-n4cccn4)c4ncsc34)nn2)CC(C)(C)N1 [Compound 335, 4-(pyrazol-1-yl)-7-{6-[(2,2,6,6-tetramethylpiperidin-4-yl)oxy]pyridazin-3-yl}-1,3-benzothiazole] | 1000 to 10000 | 1000 to 10000 | 1000 to 10000 | –
14 | > 10000 | > 10000 | > 10000 | > 10000 | > 10000 | > 10000 | > 10000 | > 10000 | c1n[nH]cc1-c1ccc(-c2ccc(N3CCCC4(CCNC4)C3)nn2)c2[nH]ncc12 (stereo not drawn) [Compound 253] | > 10000 | > 10000 | > 10000 | –
15 | 1000 to 10000 | 1000 to 10000 | 100 to 1000 | 100 to 1000 | 100 to 1000 | 100 to 1000 | < 100 | 100 to 1000 | Cn1cc(-c2c(F)cc(-c3ccc(OC4CC(C)(C)NC(C)(C)C4)nn3)c3[nH]ncc23)cn1 [Compound 319, 5-fluoro-4-(1-methylpyrazol-4-yl)-7-{6-[(2,2,6,6-tetramethylpiperidin-4-yl)oxy]pyridazin-3-yl}-1H-indazole] | 100 to 1000 | 1000 to 10000 | 100 to 1000 | –
16 | > 10000 | 1000 to 10000 | 1000 to 10000 | 1000 to 10000 | 1000 to 10000 | > 10000 | 100 to 1000 | > 10000 | c1nc2c(-c3cn[nH]c3)ccc(-c3ccc(N4CCNCC4)nn3)c2s1 [Compound 185] | 1000 to 10000 | > 10000 | 1000 to 10000 | –
17 | 1000 to 10000 | 1000 to 10000 | 1000 to 10000 | 1000 to 10000 | 100 to 1000 | 1000 to 10000 | 1000 to 10000 | – | C[C@@H]1CN(c2ncc(-c3ccc(-n4cccn4)c4[nH]ncc34)nn2)C[C@H](C)N1 [Compound 571] | – | – | – | –

Reference: US20240368163A1, “COMPOUNDS AND METHODS FOR MODULATING SPLICING” (REMIX THERAPEUTICS INC., priority 2021, published 2024)
